Drawing on BindingDB's records for doi:10.1016/j.bmcl.2011.12.066 (Daiichi Sankyo, 2012), this text covers EC50 for two compounds.

As a reminder, the EC50 is the concentration giving half of the maximal effect. Higher therefore signals a less potent agent.

This test deals with T1, Peroxisome proliferator-activated receptor gamma (Homo sapiens, UniProt P37231).
T1 sequence (P37231 whole entry): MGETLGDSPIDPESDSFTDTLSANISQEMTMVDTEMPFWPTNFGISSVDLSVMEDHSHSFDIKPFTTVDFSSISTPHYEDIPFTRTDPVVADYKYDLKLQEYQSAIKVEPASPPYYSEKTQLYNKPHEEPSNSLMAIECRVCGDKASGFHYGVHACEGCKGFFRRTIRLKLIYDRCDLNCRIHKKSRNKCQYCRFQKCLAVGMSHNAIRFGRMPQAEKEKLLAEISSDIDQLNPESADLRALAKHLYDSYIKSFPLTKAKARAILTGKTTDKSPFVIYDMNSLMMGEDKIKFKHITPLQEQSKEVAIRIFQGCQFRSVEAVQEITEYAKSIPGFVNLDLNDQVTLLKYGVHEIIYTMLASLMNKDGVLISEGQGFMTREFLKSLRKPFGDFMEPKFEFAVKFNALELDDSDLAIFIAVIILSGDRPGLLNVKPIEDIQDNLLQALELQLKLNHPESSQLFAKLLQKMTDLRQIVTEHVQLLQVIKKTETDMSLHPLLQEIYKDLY
The test is described as follows: Partial agonist activity at human PPARgamma expressed in MG-63 cells by reporter gene-based transactivation assay. (Reporter assays use an easily measured gene product as a stand-in for the process of interest.)

In turn, `COc1cc(O)c2c(c1C(=O)NCc1cc(O)cc3ccccc13)OC1=CC(=O)C(C(C)=O)C(=O)[C@]12C` (some centres not stated) returned an EC50 of 130 nM.

In the case of `COC(=O)CCc1cc(CNC(=O)c2c(OC)cc(O)c3c2OC2=CC(=O)C(C(C)=O)C(=O)[C@]23C)c2ccccc2c1` (some centres not stated), a half-maximal effect (EC50) was put at 130 nM.
